Test results from patent publication US4145554A, “3-Nitropyrazole derivatives” (Eli Lilly and Company, priority 1977, dated 1979).
Converted amounts (≈) assume the structure as drawn.

Experiments:
Mycoplasma hyorhinis = assay: in vitro tube dilution test (MIC); type: cell-based
Excerpt: (§1) Our compound, 1-(2-hydroxyethyl)-3-nitro-4-pyrazolecarboxamide, has been extensively tested in vitro to determine the range of microorganisms against which it is active. The table of data below reports the minimum inhibitory concentration (MIC) at which the compound is effective in controlling a variety of microorganisms in a standard tube dilution test system. The MIC is reported as micrograms of compound per milliliter.
(§2) The other preferred compounds of our invention have also been thoroughly tested in the in vitro tube dilution test.

Pseudomonas sp. = assay: in vitro tube dilution test (MIC); type: cell-based
Excerpt: as §1, §2

[1] = system: Salmonella heidelburg 1593; assay: in vitro tube dilution test (MIC); type: cell-based; conditions: Salmonella heidelburg 1593 (turkey pancreas), tube dilution
Excerpt: as §1, §2

Salmonella pullorum Ill. = assay: in vitro tube dilution test (MIC); type: cell-based; conditions: Salmonella enterica
Excerpt: as §1, §2

[2] = system: Salmonella typhimurium 1335; assay: in vitro tube dilution test (MIC); type: cell-based; conditions: Salmonella enterica; Salmonella typhimurium 1335 (turkey intestine), tube dilution
Excerpt: as §1, §2

Treponema hyodysenteriae = assay: in vitro tube dilution test (MIC); type: cell-based; conditions: Brachyspira hyodysenteriae
Erysipelas insidiosa = assay: in vitro tube dilution test (MIC); type: cell-based
Hemophilus gallinarum = assay: in vitro tube dilution test (MIC); type: cell-based
Hemophilus somnus = assay: in vitro tube dilution test (MIC); type: cell-based
Clostridium perfringens = assay: microbe, parasite or virus in culture; type: cell-based
Salmonella pullorum 9-27 = assay: in vitro tube dilution test (MIC); type: cell-based; conditions: Salmonella enterica; Salmonella pullorum 9-27, tube dilution
[3] = system: Enterobacter cloacae and aerogenes; assay: agar dilution technique (MIC); type: cell-based
Hemophilus influenzae = assay: agar dilution technique (MIC); type: cell-based; conditions: Haemophilus influenzae
Proteus sp. = assay: agar dilution technique (MIC); type: cell-based
Staphylococcus aureus = assay: agar dilution technique (MIC); type: cell-based
Mima polymorpha = assay: agar dilution technique (MIC); type: cell-based
Shigella sp. = assay: agar dilution technique (MIC); type: cell-based
Alkaligenes fecalis = assay: agar dilution technique (MIC); type: cell-based
E. amylovora = assay: Fire blight of field-grown pear trees, natural and induced infections; type: in vivo; conditions: 100 to 800 ppm. aqueous dispersions
Experimental: Our compound, 1-(2-hydroxyethyl)-3-nitro-4-pyrazolecarboxamide, was also tested against natural and induced infections of E. amylovora on field-grown pear trees.

Streptococcus pyogenes = assay: Tests in mice, Streptococcus pyogenes infection; type: in vivo; conditions: S. pyogenes
Experimental: Groups of laboratory mice were inoculatd with E. coli or with Streptococcus pyogenes. The 3-nitropyrazoles were administered in two different modes to the infected mice. In one group of tests, the compound was administered in two subcutaneous doses of 83 mg./kg. each, given 1 and 5 hours after the mice were inoculated with the organism. The mice were observed, and the results reported below as the number of days the treated mice survived the challenge.
In the other group of tests, the dose of each compound which allowed 50 percent of the treated mice to survive the challenge was determined. Again, the compound was administered in subcutane divided doses, 1 and 5 hours post-inoculation.

P. multocida = assay: Mice infected with P. multocida, compound in drinking water; type: in vivo; conditions: 7 days
Experimental: Some of the 3-nitropyrazoles were also administered to mice infected with P. multocida. Tests were conducted in which the pyrazoles were administered both by injection and in the drinking water.
The table below reports results of tests in which the compound was administered in the water. Groups of 10 standardized white mice were segregated, and each mouse was infected by injecting a broth culture of P. multocida subcutaneously. The administration of the test compounds was begun at the same time the mice were infected by adding a known amount of the test compound to the drinking water of the mice. One group of infected control mice received no treatment. The mice were observed, and the test was concluded at the end of 7 days. The number of mice in each group which survived the P. multocida infection was recorded.

[4] = system: naturally-occurring pneumoenteritis complex infection (pasteurella species, E. coli and salmonellae); assay: Pneumoenteritis complex disease in calves, second test; type: in vivo
Experimental: The test reported below was conducted in general identically with the test above. All of the calves used in the test were approximately 3 days old when the test began, and the test ran for 56 days.
The treated group received 200 mg./day/calf (about 3-5 mg./kg./day) of 1-(2-hydroxyethyl)-3-nitro-4-pyrazolecarboxamide, which was administered in the calves' milk replacer diet.
The table below reports the average weight gain of the surviving animals and the mortality of the calves in each group.

S. typhimurium = assay: Salmonella typhimurium in chickens, medicated feed; type: in vivo, chicks; conditions: for Avg. Wt.: surviving chicks
avian E. coli = assay: Colibacillosis in chickens, medicated feed; type: in vivo
Salmonella typhosa = assay: agar dilution technique (MIC); conditions: Salmonella enterica
[5] = 100 gm./ton, 10^-1 dilution challenge, initial weight 940 gm.
[6] = 100 gm./ton, further test, about 5 weeks of age
[7] = 200 gm./ton, 10^-1 dilution challenge, initial weight 940 gm.
[8] = 200 gm./ton, further test, about 5 weeks of age
[9] = 300 gm./ton feed, about 5 weeks old, 10^-2 dilution challenge, first test
[10] = 300 gm./ton, 10^-1 dilution challenge, initial weight 940 gm.

NC(=O)c1cn(CCO)nc1[N+](=O)[O-] [Compound 32, 1-(2-hydroxyethyl)-3-nitro-4-pyrazolecarboxamide]
MIC (Mycoplasma hyorhinis): 50 µg/mL (≈ 250 µM) | MIC (Pseudomonas sp.): 12.5 µg/mL (≈ 62.5 µM) | MIC [1]: < 1.56 µg/mL | MIC (Salmonella pullorum Ill.): < 1.56 µg/mL | MIC [2]: 6.25 µg/mL (≈ 31.2 µM) | MIC (Treponema hyodysenteriae): 3.12 µg/mL (≈ 15.6 µM) | MIC (Erysipelas insidiosa): > 50 µg/mL | MIC (Hemophilus gallinarum): 0.78 µg/mL (≈ 3.9 µM) | MIC (Hemophilus somnus): > 100 µg/mL | MIC (Clostridium perfringens): 25 to 50 µg/mL (≈ 125 to 250 µM) | MIC (Salmonella pullorum 9-27): < 1.56 µg/mL | MIC [3]: 32 µg/mL (≈ 160 µM) | MIC (Hemophilus influenzae): 4 µg/mL (≈ 20 µM) | MIC (Proteus sp.): > 128 µg/mL | MIC (Staphylococcus aureus): 8 to 16 µg/mL (≈ 40 to 79.9 µM) | MIC (Mima polymorpha): 2 µg/mL (≈ 9.99 µM) | MIC (Shigella sp.): 16 µg/mL (≈ 79.9 µM) | MIC (Alkaligenes fecalis): 128 µg/mL (≈ 640 µM) | control of fire blight on field-grown pear trees (E. amylovora): controlled fire blight on the pear trees | Days Survived (Streptococcus pyogenes; two subcutaneous doses of 83 mg./kg., 1 and 5 hours): 5.0 days | ED50 (Streptococcus pyogenes; Streptococcus pyogenes, sc, subcutaneous, 1 and 5 hours post-inoculation): 53.7 mg/kg | Survival (P. multocida; 0.1 gm./gal. in drinking water): 8/10 | Survival (P. multocida; 0.2 gm./gal. in drinking water): 10/10 | Mortality ([4]; 200 mg./day/calf): about 12% | surviving treated calves with E. coli in rectal swabs ([4]; 200 mg./day/calf): all of the surviving treated calves | survivors with P. multocida organisms in nasal secretions ([4]; 200 mg./day/calf): 6 of the survivors | Mortality ([4]; 200 mg./day/calf (about 3-5 mg./kg./day), 56 days): 1/8 | Avg. Wt. Gain ([4]; 200 mg./day/calf (about 3-5 mg./kg./day), 56 days, survivors): 52.1 lbs. | Survival (S. typhimurium; Test A, 100 gm./ton feed): 20/36 | Avg. Wt. (S. typhimurium; Test A, 100 gm./ton feed): 94 gm. | Survival (S. typhimurium; Test B, 200 gm./ton feed): 35/36 | Avg. Wt. (S. typhimurium; Test B, 200 gm./ton feed): 107 gm. | Survival (S. typhimurium; Test C, 200 gm./ton feed): 34/48 | Avg. Wt. (S. typhimurium; Test C, 200 gm./ton feed): 71 gm. | Avg. Wt. (avian E. coli; [5]): 1239 gm. | E. coli Lesions (avian E. coli; [5]): 17/18 | Mortality (avian E. coli; [5]): 0/18 | Mortality (avian E. coli; 100 gm./ton, approximately 7-week-old chickens): 3/12 | E. coli Lesions (avian E. coli; 100 gm./ton, approximately 7-week-old chickens, birds which died not examined): 5/9 | Avg. Wt. (avian E. coli; [6]): 1209 gm. | E. coli Lesions (avian E. coli; [6]): 37/40 | Mortality (avian E. coli; [6]): 6/40 | Avg. Wt. (avian E. coli; [7]): 1250 gm. | E. coli Lesions (avian E. coli; [7]): 16/18 | Mortality (avian E. coli; [7]): 0/18 | Avg. Wt. (avian E. coli; [8]): 1353 gm. | E. coli Lesions (avian E. coli; [8]): 31/40 | Mortality (avian E. coli; [8]): 2/40 | E. coli Lesions (avian E. coli; [9]): 11/30 | Mortality (avian E. coli; [9]): 0/30 | Wt. (avian E. coli; [9]): 1103 gm. | Avg. Wt. (avian E. coli; [10]): 1302 gm. | E. coli Lesions (avian E. coli; [10]): 5/18 | Mortality (avian E. coli; [10]): 0/18 | Mortality (avian E. coli; 300 gm./ton, approximately 7-week-old chickens): 0/12 | E. coli Lesions (avian E. coli; 300 gm./ton, approximately 7-week-old chickens, birds which died not examined): 4/12 | Mortality (avian E. coli; 600 gm./ton, approximately 7-week-old chickens): 0/12 | E. coli Lesions (avian E. coli; 600 gm./ton, approximately 7-week-old chickens, birds which died not examined): 2/12 | Mortality (avian E. coli; 1000 gm./ton, approximately 7-week-old chickens): 0/12 | E. coli Lesions (avian E. coli; 1000 gm./ton, approximately 7-week-old chickens, birds which died not examined): 0/12 | MIC (Salmonella typhosa): 2 µg/mL (≈ 9.99 µM)
